As usually defined, the pKd is the Kd on a negative log10 scale, so that one unit is a factor of ten.

Molecules are shown by their SMILES. pKd: −log10 of the molar value.

The values that follow come from US5354758A, “Benzomorphans useful as NMDA receptor antagonists” (priority 1992, dated 1994).

The subject of one series is mice. Description: Lethality of NMDA in mice. It is filed as in vivo, Swiss-Webster mouse. To be noted: NMDA at 200 mg/kg. How it is done: According to the method described by Ferkany et al. (1988), the test compounds were administered ip to four male Swiss-Webster mice (26-34 g) each, following 30 minutes later, 200 mg/kg of NMDA was administered to the mice each. […] Those compounds that protected three or more of the mice at any of the doses were evaluated further by determining the ED50 values using three or more doses with the eight mice per dose. The ED50 was estimated by the method of Litchfield and Wilcoxin (1949). Water-soluble compounds were dissolved in distilled water and administered in a volume of 10 ml/kg. Water-insoluble compounds were suspended in an aqueous solution of 0.5% methyl cellulose and administered in a volume of 20 ml/kg.

For series [1], the system named is σ-site of opioid receptor. The settings on record: shown previously; cited from earlier work.
Series [2] has as its target T1, σ-site of opioid receptor (Cavia porcellus, UniProt Q60492).
T1 construct: Hartley guinea pigs were decapitated, and the brains were removed and homogenized; from tissue; host or cells: Hartley guinea pig brain homogenate (washed membranes)
Description: In vitro binding, inhibition of [^3 H]PPP binding to guinea pig brain homogenate. Set-up: species or system Hartley guinea pig. How it is done:
As described below, the compounds of the invention were tested for their ability to inhibit binding of radiolabeled versions of these known ligands.
Hartley guinea pigs were decapitated, and the brains were removed and homogenized in 20 volumes of 50 mM Tris-HCl using a Polytron homogenizer. The homogenate was centrifuged at 27,000×G for 15 minutes, and the pellet was resuspended in 50 mM Tris-HCl. The centrifugation procedure was repeated twice. The pellet was diluted to approximately 8 mg wet tissue/assay. Various concentrations of the test compounds (100 μL) and [^3 H]PPP (100 μL, final concentration 0.6 nM) were incubated with 1.8 mL of the tissue homogenate at 25° C. for 1 hour. Unlabeled PPP (final concentration 10 μM) was added to some tubes to determine nonspecific binding. The reaction was stopped by filtration through GF/B filters using a Brandel Cell Harvester. After washing twice with […] of ice cold Tris-HCl, the filters were suspended in 5 mL of scintillation fluid, and the radioactivity was counted after standing at room temperature overnight.
Table 1 summarizes the results of the in vitro binding studies using these three radioligands at the NMDA receptor site, μ-site and σ-site of opioid receptor, respectively.

T1 sequence (Q60492 whole entry): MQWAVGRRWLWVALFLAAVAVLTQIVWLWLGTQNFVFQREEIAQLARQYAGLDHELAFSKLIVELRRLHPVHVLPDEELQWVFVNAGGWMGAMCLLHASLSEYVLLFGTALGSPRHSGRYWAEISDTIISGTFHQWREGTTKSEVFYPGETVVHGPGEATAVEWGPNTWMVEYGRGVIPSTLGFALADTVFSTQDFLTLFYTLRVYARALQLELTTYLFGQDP

As to `CN[C@H](CC(=O)O)C(=O)O` [NMDA, N-methyl-D-aspartate], the mice died result in the series with mice is “approximately 90%”.

Regarding `CCCN1CCCC(c2cccc(O)c2)C1` (stereo not drawn) [PPP, reference compound], the “high-affinity ligand at the σ site of the opioid receptor” value in series [1] is on record as “high-affinity”. Besides, the pKd in series [2] was 7.70.
